Experimental data: the NIST ThermoML archive (doi:10.1016/j.jct.2015.11.017)
Numbers after ± are expanded uncertainties.

Assay: mn = molality of the nth substance listed, in mol/kg
Details: 298.2 K, 101.3 kPa, Liquid, Alternating current cell with electrodes

electrical conductivity (m1 = 0.01003): 0.0586 ± 0.001 S/m
electrical conductivity (m1 = 0.01504): 0.0684 ± 0.001 S/m
electrical conductivity (m1 = 0.02006): 0.0816 ± 0.001 S/m
electrical conductivity (m1 = 0.02507): 0.097 ± 0.01 S/m
electrical conductivity (m1 = 0.03009): 0.106 ± 0.01 S/m
SMILES: CCCCCCCCCCCCOS(=O)(=O)[O-].[Na+] [sodium dodecyl sulfate] + O
